Patent US7632952B2, “Benzothiazoles and the use thereof as medicaments” (Aventis Pharma S.A., priority 2004, dated 2009)
Counter-ions that a name gives are not always drawn.

Assays:
Aurora 2 = molecular target: T1, Aurora 2 (Homo sapiens, UniProt O14965); test: Aurora 2 kinase radioactivity scintillation test; type: biochemical
T1 construct: A complete recombinant Aurora 2 enzyme, the N-terminal end of which was labeled with histidine; His tag (N); made in house; host or cells: E. coli
T1 sequence (O14965 1-403): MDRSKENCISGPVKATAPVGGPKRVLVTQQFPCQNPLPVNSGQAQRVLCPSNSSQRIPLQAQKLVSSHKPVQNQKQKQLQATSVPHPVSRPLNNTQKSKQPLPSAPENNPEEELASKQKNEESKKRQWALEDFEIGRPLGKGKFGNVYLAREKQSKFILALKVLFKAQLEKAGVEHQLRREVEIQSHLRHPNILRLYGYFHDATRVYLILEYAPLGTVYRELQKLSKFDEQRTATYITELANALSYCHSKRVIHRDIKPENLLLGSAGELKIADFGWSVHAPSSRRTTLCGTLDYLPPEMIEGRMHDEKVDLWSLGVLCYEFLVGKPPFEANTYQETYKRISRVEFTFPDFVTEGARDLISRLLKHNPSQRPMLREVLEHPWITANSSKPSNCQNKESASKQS
Method: The inhibitory effect of the compounds toward the kinase Aurora 2 is determined via a radioactivity scintillation test.
A complete recombinant Aurora 2 enzyme, the N-terminal end of which was labeled with histidine, was expressed in E. coli and purified to a quality close to homogeneity.
The C-terminal fragment (Q1687-H2101) of an NuMA (nuclear protein which is associated with the Mitotic Apparatus) expressed in E. coli, and the N-terminal end of which was labeled with histidine, was purified by chromatography with nickel chelate and used as substrate in the Aurora 2 kinase test.
The kinase activity of Aurora 2 is measured by scintillation on a microplate saturated with nickel chelate (New England Nuclear, SMP107 model). Each well contains 100 μl of the following solution: 0.02 μM of Aurora 2; 0.5 μM of NuMA substrate; 1 μM of ATP supplemented with 0.5 μCi of ATP-[^33P]. The solutions are incubated for 45 minutes at 37° C. The test buffer is then removed and the wells are rinsed twice with 300 μl of kinase buffer. The radioactivity is measured in each well using a Packard Model Top Count NXT machine.
The background noise is measured in duplicate in wells containing the radioactive ATP alone containing buffered kinase treated in the same manner as for the other samples.
The activity of the control is determined by measuring in duplicate the radioactivity in the complete test mixture (ATP, Aurora 2 and NuMA substrate), in the absence of test compound.
The inhibition of the activity of Aurora 2 with a compound of the invention is expressed as a percentage of inhibition of the control activity in the absence of test compound. Staurosporin is added to each plate as inhibition control.

CDK2/cyclin E = CDK2/cyclin E (Homo sapiens, UniProt P24941); test: CDK2/cyclin E Flashplate test in 96-well format; type: biochemical; settings: read-out: CDK2 IC50
How it was run: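 CDK2/cyclin E-(His)6 from baculovirus-coinfected Sf21 cells was IMAC-purified. Kinase reaction used biotinylated pRb peptide (10 μM final), [γ-33P]ATP in HEPES pH 7.5 with Mg2+ and DTT, at 30 °C in streptavidin Flashplates. 33P incorporation was scintillation counted and IC50 determined.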

Compound | IC50 (Aurora 2) [nM] | IC50 (CDK2/cyclin E) [nM]
CC(C)N(CCNc1ccc(S(=O)(=O)Oc2ccc3nc(NC(=O)C4CCCC4)sc3c2)cc1)C(C)C [Example 45, 4-(2-Diisopropylaminoethylamino)benzenesulfonic acid 2-(cyclo-pentanecarbonylamino)benzothiazol-6-yl ester] | 2890 | 136
CNc1ccc(S(=O)(=O)Oc2ccc3nc(NC(=O)C4CC4)sc3c2)cc1 [Example 10, 4-methylaminobenzenesulfonic 2-(cyclopropane-carbonylamino)benzothiazol-6-yl ester] | 34 | 92
CCC(=O)Nc1nc2ccc(OS(=O)(=O)c3ccc(NCCN(C(C)C)C(C)C)cc3)cc2s1 [Example 57, 4-(2-diisopropylaminoethylamino)benzenesulfonic acid 2-propionylaminobenzothiazol-6-yl ester hydrochloride] | 3180 | 40
CC(C)(O)CNc1ccc(S(=O)(=O)Oc2ccc3nc(NC(=O)CCc4cccnc4)sc3c2)cc1 [Example 63, 4-(2-hydroxy-2-methylpropylamino)benzene-sulfonic acid 2-(3-pyrid-3-ylpropionylamino)benzothiazol-6-yl ester hydro-chloride] | 1050 | 79
CC(C)NCCNc1ccc(S(=O)(=O)Oc2ccc3nc(NC(=O)C4CC4)sc3c2)cc1 [Example 53, 4-(2-isopropylaminoethylamino)benzenesulfonic 2-(cyclopropanecarbonylamino)benzothiazol-6-yl ester hydrochloride] | 172 | 25
CC(C)C(=O)Nc1nc2ccc(OS(=O)(=O)c3ccc(NCCN(C(C)C)C(C)C)cc3)cc2s1 [Example 55, 4-(2-diisopropylaminoethylamino)benzenesulfonic acid 2-isobutyrylaminobenzothiazol-6-yl ester hydrochloride] | 5830 | 73
O=C(Nc1nc2ccc(OS(=O)(=O)c3ccc(NCCCn4ccnc4)cc3)cc2s1)C1CC1 [Example 9, 4-(3-imidazol-1-ylpropylamino)benzenesulfonic 2-(cyclopropanecarbonylamino)benzothiazol-6-yl ester] | 65 | 68
COCC(=O)Nc1nc2ccc(OS(=O)(=O)c3ccc(NCCN(C(C)C)C(C)C)cc3)cc2s1 [Example 44, 4-(2-Diisopropylaminoethylamino)benzenesulfonic acid 2-(2-methoxyacetylamino)benzothiazol-6-yl ester] | 3080 | 108
CC(C)(CNc1ccc(S(=O)(=O)Oc2ccc3nc(NC(=O)C4CC4)sc3c2)cc1)OP(=O)(O)O [Example 89, 4-(2-methyl-2-phosphonooxypropylamino)benzene-sulfonic acid 2-(cyclopropanecarbonylamino)benzothiazol-6-yl ester] | 258 | 105
CC(C)N(CCNc1ccc(S(=O)(=O)Oc2ccc3nc(NC(=O)C4(N)CCCC4)sc3c2)cc1)C(C)C [Example 41, 4-(2-diisopropylaminoethylamino)benzenesulfonic acid 2-[(1-aminocyclopentanecarbonyl)amino]benzothiazol-6-yl ester] | 325 | > 10000
O=C(Nc1nc2ccc(OS(=O)(=O)c3cccs3)cc2s1)C1CC1 [Example 33h, Thiophene-2-sulfonic acid 2-(cyclopro-panecarbonylamino)benzothiazol-6-yl ester] | 68 | 6980
O=C(Nc1nc2ccc(OS(=O)(=O)c3ccc(-c4ccccn4)s3)cc2s1)C1CC1 [Example 85, 5-pyridin-2-ylthiophene-2-sulfonic acid 2-(cyclopropanecarbonylamino)benzothiazol-6-yl ester] | 6940 | > 10000
CC(C)N(CCNc1ccc(S(=O)(=O)Oc2ccc3nc(NC(=O)C4CC4)sc3c2)cc1)C(C)C [Example 12, 4-(2-diisopropylaminoethylamino)benzenesulfonic 2-(cyclopropanecarbonylamino)benzothiazol-6-yl ester] | 172 | 25
CC(C)(O)CNc1ccc(S(=O)(=O)Oc2ccc3nc(NC(=O)C4CC4)sc3c2)cc1 [Example 11, 4-(2-hydroxy-2-methylpropylamino)benzene-sulfonic 2-(cyclopropanecarbonylamino)benzothiazol-6-yl ester] | 105 | 19
CC(=O)Nc1nc2ccc(OS(=O)(=O)c3ccc(NCCN(C(C)C)C(C)C)cc3)cc2s1 [Example 43, 4-(2-Diisopropylaminoethylamino)benzenesulfonic acid 2-acetylaminobenzothiazol-6-yl ester] | 2010 | 49
CC(C)N(CCNc1ccc(S(=O)(=O)Oc2ccc3nc(NC(=O)C4CCC4)sc3c2)cc1)C(C)C [Example 60, 4-(2-diisopropylaminoethylamino)benzenesulfonic acid 2-(cyclobutanecarbonylamino)benzothiazol-6-yl ester hydrochloride] | 2800 | 105
CC(=O)Nc1nc2ccc(OS(=O)(=O)c3ccc(NCCNC(C)C)cc3)cc2s1 [Example 65, 4-(2-isopropylaminoethylamino)benzenesulfonic acid 2-acetylaminobenzothiazol-6-yl ester] | 826 | 107
